Data: patent US7396837B2, “Antitumoral analogs of lamellarins” (Pharma Mar, S.A.U., priority 2002, dated 2008)
Like-named read-outs stand apart in the source and are kept apart here.

What was measured:
Type in all cases: cell-based
K-562 = test: SRB colorimetric cell growth inhibition assay, K-562; conditions: Homo sapiens; for GI50: GI=growth inhibition, read-out: GI50 K-562; for IC (TGI): total growth inhibition (cytostatic effect), read-out: TGI K-562; for CC50: cell killing (cytotoxic effect)
How it was run: (§1)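 Cancer cells grown in vitro were continuously treated with compound. Cell mass was then determined by SRB staining and expressed as growth inhibition.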

A-549 = test: SRB colorimetric cell growth inhibition assay, A-549; conditions: Homo sapiens; for GI50: GI=growth inhibition, read-out: GI50 A-549; for IC (TGI): total growth inhibition (cytostatic effect), read-out: TGI A-549; for CC50: cell killing (cytotoxic effect)
How it was run: as §1

SK-MEL-28 = test: SRB colorimetric cell growth inhibition assay, SK-MEL-28; conditions: Homo sapiens; for GI50: GI=growth inhibition, read-out: GI50 MEL-28; for IC (TGI): TGI=total growth inhibition (cytostatic effect), read-out: TGI MEL-28; for CC50: LC=cell killing (cytotoxic effect)
How it was run: as §1

HT-29 = test: SRB colorimetric cell growth inhibition assay, HT-29; conditions: Homo sapiens; for GI50: GI=growth inhibition, read-out: GI50 HT-29; for CC50: cell killing (cytotoxic effect); for IC (TGI): total growth inhibition (cytostatic effect), read-out: TGI HT-29
How it was run: as §1

LoVo = test: SRB colorimetric cell growth inhibition assay, LoVo; conditions: Homo sapiens, LoVo; for CC50: cell killing (cytotoxic effect); for GI50: GI=growth inhibition, read-out: GI50 LOVO; for IC (TGI): total growth inhibition (cytostatic effect), read-out: TGI LOVO
How it was run: as §1

LoVo-Dox = test: SRB colorimetric cell growth inhibition assay, LoVo-Dox (MDR); conditions: Homo sapiens; for GI50: GI=growth inhibition, read-out: GI50 LOVO-DOX; for IC (TGI): total growth inhibition (cytostatic effect), read-out: TGI LOVO-DOX; for CC50: cell killing (cytotoxic effect)
How it was run: as §1

DU-145 = test: SRB colorimetric cell growth inhibition assay, DU-145; conditions: Homo sapiens; for GI50: GI=growth inhibition, read-out: GI50 DU-145; for IC (TGI): TGI=total growth inhibition (cytostatic effect), read-out: TGI DU-145; for CC50: LC=cell killing (cytotoxic effect)
How it was run: as §1

LNCaP = test: SRB colorimetric cell growth inhibition assay, LNCaP; conditions: Homo sapiens, LNCaP; for GI50: GI=growth inhibition, read-out: GI50 LN-caP; for IC (TGI): TGI=total growth inhibition (cytostatic effect), read-out: TGI LN-caP; for CC50: LC=cell killing (cytotoxic effect)
How it was run: as §1

SK-BR-3 = test: SRB colorimetric cell growth inhibition assay, SK-BR-3; conditions: Homo sapiens; for GI50: GI=growth inhibition, read-out: GI50 SK-BR-3; for IC (TGI): TGI=total growth inhibition (cytostatic effect), read-out: TGI SK-BR-3; for CC50: LC=cell killing (cytotoxic effect)
How it was run: as §1

IGROV = test: SRB colorimetric cell growth inhibition assay, IGROV; conditions: Homo sapiens, IGROV; for CC50: LC=cell killing (cytotoxic effect); for GI50: GI=growth inhibition, read-out: GI50 IGROV; for IC (TGI): TGI=total growth inhibition (cytostatic effect), read-out: TGI IGROV
How it was run: as §1

IGROV-ET = test: SRB colorimetric cell growth inhibition assay, IGROV-ET (ET-743 resistant); conditions: Homo sapiens; for GI50: GI=growth inhibition, read-out: GI50 IGROV-ET; for IC (TGI): TGI=total growth inhibition (cytostatic effect), read-out: TGI IGROV-ET; for CC50: LC=cell killing (cytotoxic effect)
How it was run: as §1

PANC-1 = test: SRB colorimetric cell growth inhibition assay, PANC-1; conditions: Homo sapiens; for GI50: GI=growth inhibition, read-out: GI50 PANC-1; for IC (TGI): total growth inhibition (cytostatic effect), read-out: TGI PANC-1; for CC50: cell killing (cytotoxic effect)
How it was run: as §1

SKOV-3 = test: SRB colorimetric cell growth inhibition assay, SKOV-3; conditions: Homo sapiens; for GI50: SK-OV-3, SKOV-3, GI=growth inhibition, read-out: GI50 SKOV-3; for IC (TGI): TGI=total growth inhibition (cytostatic effect), read-out: TGI SKOV-3
How it was run: (§2)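 SRB colorimetric readout of cell growth/viability in 96-well format. Means ± SD from triplicate wells; GI (growth inhibition), TGI (total growth inhibition, cytostatic) and LC (cell killing, cytotoxic) parameters derived.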

[1] = SRB colorimetric cell growth inhibition assay, H-MEC-1; conditions: human
How it was run: as §2

H-MEC-1 = test: as above; conditions: Homo sapiens, HMEC-1, H-MEC-1; for GI50: GI=growth inhibition; for IC (TGI): TGI=total growth inhibition (cytostatic effect), read-out: TGI H-MEC-1
How it was run: as §2

## COc1cc(-c2c3n(c4c(=O)oc5cc(OC(=O)[C@@H]6CCCN6)c(OC)cc5c24)CCc2cc(OC(=O)[C@@H]4CCCN4)c(OC)cc2-3)ccc1OC(=O)[C@@H]1CCCN1 [Compound 134]
K-562; K562, K-562
  GI50: 0.571 µM
  IC (TGI): 4.93 µM
K-562; K562, read-out: LC50 K-562, K-562
  CC50: 8.81 µM
A-549; A549, A-549
  GI50: 2.55 µM
  IC (TGI): 4.93 µM
A-549; A549, read-out: LC50 A-549, A-549
  CC50: 8.81 µM
SK-MEL-28; SK-MEL-28, MEL-28
  GI50: 1.73 µM
  IC (TGI): 3.23 µM
SK-MEL-28; SK-MEL-28, read-out: LC50 MEL-28, MEL-28
  CC50: 6.04 µM
HT-29; HT-29, HT-29
  GI50: 2.85 µM
HT-29; HT-29, read-out: LC50 HT-29, HT-29
  CC50: 8.81 µM
HT-29; HT-29
  IC (TGI): 8.81 µM
LoVo; read-out: LC50 LOVO, LOVO
  CC50: 8.67 µM
LoVo
  GI50: 2.05 µM
  IC (TGI): 4.21 µM
LoVo-Dox; LOVO-DOX
  GI50: 0.519 µM
  IC (TGI): 1.99 µM
LoVo-Dox; read-out: LC50 LOVO-DOX, LOVO-DOX
  CC50: 7.79 µM
DU-145; DU-145, DU-145
  GI50: 2.12 µM
  IC (TGI): 4.47 µM
DU-145; DU-145, read-out: LC50 DU-145, DU-145
  CC50: 8.81 µM
LNCaP; LN-caP
  GI50: 0.458 µM
  IC (TGI): 1.34 µM
LNCaP; read-out: LC50 LN-caP, LN-caP
  CC50: 4.16 µM
SK-BR-3; SK-BR-3, SK-BR-3
  GI50: 2.1 µM
  IC (TGI): 4.34 µM
SK-BR-3; SK-BR-3, read-out: LC50 SK-BR-3, SK-BR-3
  CC50: 8.81 µM
IGROV; read-out: LC50 IGROV, IGROV
  CC50: 6.5 µM
IGROV
  GI50: 0.943 µM
  IC (TGI): 2.48 µM
IGROV-ET; IGROV-ET
  GI50: 0.482 µM
  IC (TGI): 2.14 µM
IGROV-ET; read-out: LC50 IGROV-ET, IGROV-ET
  CC50: 7.58 µM
PANC-1; PANC-1, PANC-1
  GI50: 2.17 µM
  IC (TGI): 4.53 µM
PANC-1; PANC-1, read-out: LC50 PANC-1, PANC-1
  CC50: 8.81 µM
SKOV-3
  GI50: 0.739 µM
SKOV-3; SK-OV-3, read-out: LC50 SKOV-3
  CC50: 4.26 µM
SKOV-3; SK-OV-3, SKOV-3
  IC (TGI): 1.85 µM
[1]; LC50 H-MEC-1
  CC50: 8.81 µM
H-MEC-1
  GI50: 2.13 µM
  IC (TGI): 6.51 µM

## COc1cc(-c2c3c4cc(OC)c(OC(C)C)cc4oc(=O)c3n3ccc4c(OC(C)C)c(OC)c(OC)c(COS(C)(=O)=O)c4c23)ccc1OC(C)C [Compound 101]
K-562; K562, K-562
  GI50: 2.19 µM
  IC (TGI): 3.53 µM
K-562; K562, K-562, read-out: LC50 K-562
  CC50: 5.73 µM
A-549; A549, A-549
  GI50: 13.1 µM
  IC (TGI): 13.1 µM
A-549; A549, A-549, read-out: LC50 A-549
  CC50: 13.1 µM
SK-MEL-28; SK-MEL-28, MEL-28
  GI50: 13.1 µM
  IC (TGI): 13.1 µM
SK-MEL-28; SK-MEL-28, MEL-28, read-out: LC50 MEL-28
  CC50: 13.1 µM
HT-29; HT-29, HT-29
  GI50: 13.1 µM
  IC (TGI): 13.1 µM
HT-29; HT-29, HT-29, read-out: LC50 HT-29
  CC50: 13.1 µM
LoVo
  GI50: 13.1 µM
  IC (TGI): 13.1 µM
LoVo; read-out: LC50 LOVO
  CC50: 13.1 µM
LoVo-Dox; LOVO-DOX
  GI50: 13.1 µM
  IC (TGI): 13.1 µM
LoVo-Dox; LOVO-DOX, read-out: LC50 LOVO-DOX
  CC50: 13.1 µM
DU-145; DU-145, DU-145
  GI50: 13.1 µM
  IC (TGI): 13.1 µM
DU-145; DU-145, DU-145, read-out: LC50 DU-145
  CC50: 13.1 µM
LNCaP; LN-caP
  GI50: 8.25 µM
  IC (TGI): 13.1 µM
LNCaP; LN-caP, read-out: LC50 LN-caP
  CC50: 13.1 µM
SK-BR-3; SK-BR-3, SK-BR-3
  GI50: 13.1 µM
  IC (TGI): 13.1 µM
SK-BR-3; SK-BR-3, SK-BR-3, read-out: LC50 SK-BR-3
  CC50: 13.1 µM
IGROV
  GI50: 11.9 µM
  IC (TGI): 13.1 µM
IGROV; read-out: LC50 IGROV
  CC50: 13.1 µM
IGROV-ET; IGROV-ET
  GI50: 13.1 µM
  IC (TGI): 13.1 µM
IGROV-ET; IGROV-ET, read-out: LC50 IGROV-ET
  CC50: 13.1 µM
PANC-1; PANC-1, PANC-1
  GI50: 13.1 µM
  IC (TGI): 13.1 µM
PANC-1; PANC-1, PANC-1, read-out: LC50 PANC-1
  CC50: 13.1 µM
SKOV-3
  GI50: 0.791 µM
SKOV-3; SK-OV-3, SKOV-3, LC=cell killing (cytotoxic effect), read-out: LC50 SKOV-3
  CC50: 5.71 µM
SKOV-3; SK-OV-3, SKOV-3
  IC (TGI): 2.34 µM
[1]; H-MEC-1 cells, H-MEC-1, LC=cell killing (cytotoxic effect), read-out: LC50 H-MEC-1
  CC50: 10.5 µM
H-MEC-1
  GI50: 4.66 µM
  IC (TGI): 6.99 µM
